The subject of the test is plasma ALP (80-90% containing TNAP). Nature of the test: Inhibitory test of plasma TNAP activity in B6 mouse. Format: in vivo. As to conditions: administered orally, average inhibition from 0 hour to 6 hours after administration. Here is the method: After blood sampling from the tail vein using a heparin-treated hematocrit capillary tube (EM Meister Hematocrit Capillary Tube, AS ONE Corp.) (as the sample before compound administration), each test compound suspended in a 0.5% methylcellulose solution (powder purchased from Wako Pure Chemical Industries, Ltd. was adjusted to 0.5% with Otsuka distilled water) was administered orally to the mouse. 1, 2, 4, 6, and 24 hours after the administration, blood was collected from the tail vein using a heparin-treated hematocrit capillary tube to obtain a plasma sample. The plasma sample was added to an assay buffer (1 M Tris, 1 M MgCl2, 20 mM ZnCl2, and water, pH 7.5), and the mixture was left standing for 5 minutes. Then, the absorbance at 405 nm was measured and used as a blank. The substrate pNPP was added to the plasma sample and incubated at room temperature for 180 minutes. Then, the absorbance (ABS: 405 nm) was measured using a microplate reader (model plus 384, Molecular Devices, LLC), and the concentration of produced p-nitrophenol was calculated. The blank was subtracted from all measurement values to calculate TNAP activity at each time point with the TNAP activity of the sample before compound administration defined as 100%. The pharmaceutical effect of the test compound was evaluated by the average inhibition of plasma ALP (80-90% containing TNAP) activity for 6 hours from 0 hour to 6 hours after the administration of the test compound. It was calculated according to the following expression: 100−((plasma ALP activity at 0 hr+plasma ALP activity at 1 hr)*1/2+(plasma ALP activity at 1 hr+plasma ALP activity at 2 hr)*1/2+(plasma ALP activity at 2 hr+plasma ALP activity at 4 hr)*2/2+(plasma ALP activity at 4 hr+plasma ALP activity at 6 hr)*2/2)/6.
In the case of `COc1ccc(Cl)cc1S(=O)(=O)[N-]c1cnc2c(c1)C(=O)NC1(CC1)CO2.[K+]` [Example 55, Potassium [(5-chloro-2-methoxyphenyl)sulfonyl](5′-oxo-4′,5′-dihydrospiro[cyclopropane-1,3′-pyrido[3,2-f][1,4]oxazepin]-7′-yl)azanide], the “Plasma ALP inhibition (6 h ave. inhibition %)” value stood at 58.9%.

As to `COc1ccc(F)cc1S(=O)(=O)[N-]c1cnc2c(c1)C(=O)NC1(CC1)CO2.[K+]` [Example 57, Potassium [(5-fluoro-2-methoxyphenyl)sulfonyl](5′-oxo-4′,5′-dihydrospiro[cyclopropane-1,3′-pyrido[3,2-f][1,4]oxazepin]-7′-yl)azanide], the “Plasma ALP inhibition (6 h ave. inhibition %)” value amounted to 53.5%.

Take `O=C1NC2(CC2)COc2ncc([N-]S(=O)(=O)c3cc(Cl)ccc3OC(F)(F)F)cc21.[K+]` [Example 58, Potassium {[5-chloro-2-(trifluoromethoxy)phenyl]sulfonyl}(5′-oxo-4′,5′-dihydrospiro[cyclopropane-1,3′-pyrido[3,2-f][1,4]oxazepin]-7′-yl)azanide]: the “Plasma ALP inhibition (6 h ave. inhibition %)” value is listed as 50.3%.

Regarding `CCOc1ccc(F)cc1S(=O)(=O)[N-]c1cnc2c(c1)C(=O)NC1(CC1)CO2.[K+]` [Example 59], the “Plasma ALP inhibition (6 h ave. inhibition %)” value is on record as 66.2%.

`COc1ccc(OC)c(S(=O)(=O)[N-]c2cnc3c(c2)C(=O)NC2(CC2)CO3)c1.[K+]` [Example 61, Potassium [(2,5-dimethoxyphenyl)sulfonyl](5′-oxo-4′,5′-dihydrospiro[cyclopropane-1,3′-pyrido[3,2-f][1,4]oxazepin]-7′-yl)azanide]: the “Plasma ALP inhibition (6 h ave. inhibition %)” value was found to be 67.5%.

Source of the values: patent publication US9879032B2, “Pyridine compounds” (Daiichi Sankyo Company, Limited, priority 2015, dated 2018).
